Measurements taken from ChEMBL document CHEMBL5365515, “PARP7 Inhibition: A Promising Pathway to Advancements in Cancer Therapy” (ACS Med Chem Lett, 2023).

Biological target: T1, Protein mono-ADP-ribosyltransferase TIPARP (Homo sapiens, UniProt Q7Z3E1)
T1 sequence (Q7Z3E1 whole entry): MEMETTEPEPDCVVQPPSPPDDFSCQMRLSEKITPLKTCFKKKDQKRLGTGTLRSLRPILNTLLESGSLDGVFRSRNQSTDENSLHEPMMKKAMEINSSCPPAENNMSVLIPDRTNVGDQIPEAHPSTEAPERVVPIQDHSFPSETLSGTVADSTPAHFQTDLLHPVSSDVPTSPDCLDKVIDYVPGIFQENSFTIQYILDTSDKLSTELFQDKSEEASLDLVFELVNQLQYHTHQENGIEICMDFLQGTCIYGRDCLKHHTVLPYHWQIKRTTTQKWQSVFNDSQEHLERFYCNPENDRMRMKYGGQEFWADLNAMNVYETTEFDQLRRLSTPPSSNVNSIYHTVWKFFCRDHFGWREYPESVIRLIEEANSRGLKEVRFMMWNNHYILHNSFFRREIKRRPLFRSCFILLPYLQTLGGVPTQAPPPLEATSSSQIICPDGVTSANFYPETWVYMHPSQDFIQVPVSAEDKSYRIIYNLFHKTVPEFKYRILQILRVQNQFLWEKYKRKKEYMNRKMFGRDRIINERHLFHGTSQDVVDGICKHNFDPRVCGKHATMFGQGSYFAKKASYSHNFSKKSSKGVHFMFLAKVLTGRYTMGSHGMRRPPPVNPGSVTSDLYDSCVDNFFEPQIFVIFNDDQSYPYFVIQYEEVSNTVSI
Assay: Inhibition of PARP7 in human NCI-H1373 cells assessed as increase in STAT1 phosphorylation at Tyr701 residue incubated for 48 hrs by LANCE Ultra TR-FRET assay
Assay type: cell-based

Compound	EC50 [µM]
O=C(CCCCc1cc(C(F)(F)F)c(=O)[nH]n1)N1CCN(c2ncc(C(F)(F)F)cn2)CC1	0.0606
O=C(CC[C@@H]1CCCN1c1cc(C(F)(F)F)c(=O)[nH]n1)N1CCN(c2ncc(C(F)(F)F)cn2)CC1	0.00931
O=C(CCCN(c1ccccc1)c1cc(C(F)(F)F)c(=O)[nH]n1)N1CCN(c2ncc(C(F)(F)F)cn2)CC1	0.0741
O=C(CCC1Cc2ccccc2N1c1cc(C(F)(F)F)c(=O)[nH]n1)N1CCN(c2ncc(C(F)(F)F)cn2)CC1 (centres undefined)	0.179
O=C(CC[C@@H]1CCCCN1c1cc(C(F)(F)F)c(=O)[nH]n1)N1CCN(c2ncc(C(F)(F)F)cn2)CC1	0.172
CN(CCCC(=O)N1CCN(c2ncc(C(F)(F)F)cn2)CC1)c1cc(C(F)(F)F)c(=O)[nH]n1	0.0756
O=C([C@@H](O)CCNc1cc(C(F)(F)F)c(=O)[nH]n1)N1CCN(c2ncc(C(F)(F)F)cn2)CC1	0.0213
O=C(CCCNc1cc(C(F)(F)F)c(=O)[nH]n1)N1CCN(c2ncc(C(F)(F)F)cn2)CC1	0.0719
CCN(CCCC(=O)N1CCN(c2ncc(C(F)(F)F)cn2)CC1)c1cc(C(F)(F)F)c(=O)[nH]n1	0.0516
